From ChEMBL document CHEMBL4177570, “Pyrazole C-region analogues of 2-(3-fluoro-4-methylsulfonylaminophenyl)propanamides as potent TRPV1 antagonists” (Bioorg Med Chem Lett, 2017)

What was measured:
[1] = target: T1, Transient receptor potential cation channel subfamily V member 1 (Homo sapiens, UniProt Q8NER1); assay: Antagonist activity at human TRPV1 expressed in CHO cells assessed as inhibition of capsaicin-induced intracellular calcium level preincubated for 6 mins followed by capsaicin addition by Fluo-4 dye based FLIPR assay; assay type: cell-based
T1 sequence (Q8NER1 whole entry): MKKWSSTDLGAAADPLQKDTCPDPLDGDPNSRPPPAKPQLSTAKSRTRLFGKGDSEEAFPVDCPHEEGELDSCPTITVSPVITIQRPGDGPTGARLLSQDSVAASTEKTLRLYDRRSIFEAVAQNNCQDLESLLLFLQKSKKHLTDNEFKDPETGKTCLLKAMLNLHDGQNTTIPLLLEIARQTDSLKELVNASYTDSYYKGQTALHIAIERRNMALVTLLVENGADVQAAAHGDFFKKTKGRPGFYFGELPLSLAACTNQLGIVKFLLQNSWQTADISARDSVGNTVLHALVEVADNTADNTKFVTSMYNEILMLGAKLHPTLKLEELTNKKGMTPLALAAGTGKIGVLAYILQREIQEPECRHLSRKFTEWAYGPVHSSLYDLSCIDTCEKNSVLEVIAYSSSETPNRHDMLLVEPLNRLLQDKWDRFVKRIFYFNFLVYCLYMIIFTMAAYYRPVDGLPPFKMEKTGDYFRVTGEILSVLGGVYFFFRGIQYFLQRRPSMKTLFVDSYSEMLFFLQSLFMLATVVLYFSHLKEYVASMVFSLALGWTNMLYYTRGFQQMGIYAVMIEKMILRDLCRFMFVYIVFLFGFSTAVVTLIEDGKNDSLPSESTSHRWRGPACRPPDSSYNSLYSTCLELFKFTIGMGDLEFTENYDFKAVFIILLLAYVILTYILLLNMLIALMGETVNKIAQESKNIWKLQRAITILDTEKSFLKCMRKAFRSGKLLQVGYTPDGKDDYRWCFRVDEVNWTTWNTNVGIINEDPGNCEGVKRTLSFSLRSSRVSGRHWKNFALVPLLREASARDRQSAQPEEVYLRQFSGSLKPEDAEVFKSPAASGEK

[2] = target: T1, Transient receptor potential cation channel subfamily V member 1; assay: Antagonist activity at human TRPV1 expressed in CHO cells assessed as inhibition of NADA-induced intracellular calcium level preincubated with cells followed by NADA addition by Fluo-4 dye based FLIPR assay
[3] = target: T1, Transient receptor potential cation channel subfamily V member 1; assay: Antagonist activity at pH 6 to 6.3 activated human TRPV1 expressed in CHO cells assessed as inhibition of intracellular calcium level preincubated with cells followed by receptor activation by Fluo-4 dye based FLIPR assay; assay type: cell-based
[4] = target: T1, Transient receptor potential cation channel subfamily V member 1; assay: Antagonist activity at elevated temperature activated human TRPV1 expressed in CHO cells assessed as inhibition of intracellular calcium level preincubated for 5 mins followed by receptor activation by increasing temperature to 45 degC by Fluo-4 dye based FLIPR assay; assay type: cell-based
Mus musculus = assay: Inhibition of capsaicin-induced hypothermia in NMRI mouse at 3 mg/kg, po pretreated for 15 mins followed by capsaicin treatment measured up to 120 mins relative to control; assay type: functional

Row | Ki ([1]; read-out: Ki) | Ki ([1]; cho) | Structure (SMILES) | further results
1 | 27.7 nM |  | CCCCCCn1nc(C(C)(C)C)cc1CNC(=O)C(C)c1ccc(NS(C)(=O)=O)c(F)c1 (stereo not drawn) | 
2 |  |  | C[C@H](C(=O)NCc1cc(C(C)(C)C)nn1-c1cccc(Cl)c1)c1ccc(NS(C)(=O)=O)c(F)c1 | Ki [2]: 0.04 nM; IC50 [3]: Not Active; IC50 [4]: Not Active; inhibition in vivo at 3 mg/kg (Mus musculus): 95%
3 |  | Not Active | COc1ccc(-n2nc(C(C)(C)C)cc2CNC(=O)C(C)c2ccc(NS(C)(=O)=O)c(F)c2)cc1 (stereo not drawn) | 
4 |  |  | C[C@H](C(=O)NCc1cc(C(F)(F)F)nn1-c1cccc(Cl)c1)c1ccc(NS(C)(=O)=O)c(F)c1 | inhibition in vivo at 3 mg/kg (Mus musculus): 85%
5 |  | Not Active | CC(C)(C)c1cc(CNC(=O)C(c2cccc(F)c2)c2ccc(NS(C)(=O)=O)c(F)c2)n(-c2cccc(Cl)c2)n1 (stereo not drawn) | 
6 | 50.2 nM |  | CCCCCn1nc(C(C)(C)C)cc1CNC(=O)C(C)c1ccc(NS(C)(=O)=O)c(F)c1 (stereo not drawn) | 
7 |  | Not Active | Cc1ccc(C(C(=O)NCc2cc(C(C)(C)C)nn2-c2cccc(Cl)c2)c2ccc(NS(C)(=O)=O)c(F)c2)cc1 (stereo not drawn) | 
8 |  | Not Active | CC(C)(C)c1cc(CNC(=O)C(c2ccc(NS(C)(=O)=O)c(F)c2)C2CCCCC2)n(-c2cccc(Cl)c2)n1 (stereo not drawn) | 
9 | 5.1 nM |  | CCC/C=C/n1nc(C(C)(C)C)cc1CNC(=O)C(C)c1ccc(NS(C)(=O)=O)c(F)c1 (stereo not drawn) | 
10 | 819 nM |  | Cc1ccc(/C=C/c2ccc(-n3nc(C(C)(C)C)cc3CNC(=O)C(C)c3ccc(NS(C)(=O)=O)c(F)c3)cc2)cc1 (stereo not drawn) | 
11 |  | Not Active | CC(C(=O)NCc1cc(C(C)(C)C)nn1C)c1ccc(NS(C)(=O)=O)c(F)c1 (stereo not drawn) | 
12 |  | Not Active | CC(C(=O)NCc1cc(C(C)(C)C)n[nH]1)c1ccc(NS(C)(=O)=O)c(F)c1 (stereo not drawn) | 
13 | 0.1 nM |  | C[C@H](C(=O)NCc1cc(C(C)(C)C)nn1-c1ccc(F)c(Cl)c1)c1ccc(NS(C)(=O)=O)c(F)c1 | 
14 | 8 nM |  | CC(C(=O)NCc1cc(C(C)(C)C)nn1-c1ccccc1)c1ccc(NS(C)(=O)=O)c(F)c1 (stereo not drawn) | 

Row | Structure (SMILES) | Ki ([1]; read-out: Ki) | Ki ([1]; cho) | further results
15 | CC(C(=O)NCc1cc(C(F)(F)F)nn1-c1ccc(Cl)cc1)c1ccc(NS(C)(=O)=O)c(F)c1 (stereo not drawn) | 0.4 nM |  | 
